Experimental data from patent US4122179A, “Acid addition salts of vincamine and apovincamine” (priority 1976, dated 1978).

Key:
[1] = LD50 / acute toxicity, intraperitoneal route; assay type: in vivo; conditions: i.p.; for Toxicity (Gleason): Gleason class in words, classes not defined
[2] = Hematic levels at different times after oral administration (absorption); assay type: in vivo, Wistar rat; conditions: 100 mg/kg expressed as vincamine/apovincamine, 5% carboxymethyl cellulose suspension
Description: (§1) For the compounds of the present invention a number of pharmacological and pharmacokinetic tests have been carried out. […] As regards the pharmacological and pharmacodynamic activity, it has been studied on the percent variations of the hematic flow, as recorded at the vertebral arteria in the dog after administration of the tested compounds. As regards the pharmacokinetic tests, the compounds were administered per oral route to the Wistar rat, and the hematic levels at different times from the administration were measured.
For the evaluation of the absorption, all the compounds have been orally administered at the dosage of 100 mg/kg, expressed as vincamine and apovincamine, in form of a suspension in a 5% carboxymethyl cellulose solution.
The absorption was determined by evaulating the hematic levels at the following times (minutes) : 0, 30, 120, 240, 480, 10 hours and 12 hours, in order also to assess the time from the administration (max conc.time) the maximum absorption occurred.
The vincamine and apovincamine concentrations were assessed by chromatographic method.
For the evaluation of the prolonged action of the salts and of the adducts of vincamine and apovincamine the following criterium was adopted; as derivatives having a long-acting effect, there are considered those which, 120 minutes after the administration, show hematic levels higher than those obtained with vincamine and apovincamine.

vertebral arteria = assay: Cerebral vasodilating activity: hematic flow at the vertebral arteria after i.v. administration; assay type: in vivo; conditions: i.v. (femoral vein), 5 mg/kg of vincamine/apovincamine, anesthetized dog, 4 animals per compound
Description: as §1
The cerebral vasodilating activity was studied in the anestetized dog, by measuring, by means of Statham periarterial electromagnetic flowmeters, the hematic flow at the level of the […] which, in such animal species, constitutes the greatest blood supply to the brain.
The resuls are reported in the TABLE 2 (last column) as the percent variations of the flow measured at the level of the ledt vertebral arteria after the i.v. administration of the several compounds to be tested to groups of 4 animals for each compound. The results also confirm that the compounds of the invention are all endowed with a vasodilating activity at the level of the cerebral circulus, such an action being, for some compounds, much more remarkable than that of vincamine and apovincamine.

Solubility = assay type: physicochemical; conditions: qualitative; for solubility in alcohol: alcohol (ethyl alcohol)

For `CC[C@]12CCCN3CCc4c(n(c5ccccc45)[C@@](O)(C(=O)OC)C1)[C@@H]32` [Example 21.a], the LD50 [1] was 900 mg/kg, the “Toxicity (Gleason)” value [1] was “modest” and the Max. conc. time ([2]; 100 mg/kg) was 20 min. For the same compound, the “% increase (percent variation of hematic flow, left vertebral arteria)” value (vertebral arteria; 5 mg/kg) was 30.0%, the “solubility in the common (organic) solvents” value (“solubility in the common” for short) (Solubility) was “insoluble” and the solubility in water (Solubility) was “insoluble”.

With `CC[C@@]12C=C(C(=O)OC)n3c4c(c5ccccc53)CCN(CCC1)[C@H]42` [Example 21.b, Apovincamine caproate] the LD50 [1] was 1900 mg/kg, the “Toxicity (Gleason)” value [1] was “light” and the Max. conc. time ([2]; 100 mg/kg) was 60 min. The “% increase (percent variation of hematic flow, left vertebral arteria)” value (vertebral arteria; 5 mg/kg) was 36.4%, the solubility in alcohol (Solubility) was “insoluble” and the solubility in water (Solubility) was “insoluble”.

With `CC[C@]12CCCN3CCc4c(n(c5ccccc45)[C@@](O)(C(=O)OC)C1)[C@@H]32` [Example 22.a, Vincamine caprate] the LD50 [1] was 2000 mg/kg, the “Toxicity (Gleason)” value [1] was “negligible” and the Max. conc. time ([2]; 100 mg/kg) was 120 min. For the same compound, the “% increase (percent variation of hematic flow, left vertebral arteria)” value (vertebral arteria; 5 mg/kg) was 23.9%, the “solubility in the common” value (Solubility) was “insoluble” and the solubility in water (Solubility) was “insoluble”.

In the case of `CC[C@@]12C=C(C(=O)OC)n3c4c(c5ccccc53)CCN(CCC1)[C@H]42` [Example 22.b, Apovincamine caprate], the LD50 [1] is reported as 1900 mg/kg, the “Toxicity (Gleason)” value [1] is reported as “light” and the Max. conc. time ([2]; 100 mg/kg) is reported as 240 min. The “% increase (percent variation of hematic flow, left vertebral arteria)” value (vertebral arteria; 5 mg/kg) was 28.2%, the solubility in alcohol (Solubility) was “insoluble” and the solubility in water (Solubility) was “insoluble”.

In the case of `CC[C@]12CCCN3CCc4c(n(c5ccccc45)[C@@](O)(C(=O)OC)C1)[C@@H]32` [Example 25.a, Vincamine (D,L)-mandelate], the LD50 [1] is reported as 900 mg/kg, the “Toxicity (Gleason)” value [1] is reported as “modest” and the Max. conc. time ([2]; 100 mg/kg) is reported as 20 min. For the same compound, the “% increase (percent variation of hematic flow, left vertebral arteria)” value (vertebral arteria; 5 mg/kg) was 39.4%, the solubility in alcohol (Solubility) was “soluble” and the “solubility in the common” value (Solubility) was “insoluble”. For the same compound, the solubility in water (Solubility) was “insoluble”.

In the case of `CC[C@]12CCCN3CCc4c(n(c5ccccc45)[C@@](O)(C(=O)OC)C1)[C@@H]32` [Example 26.a], the LD50 [1] is reported as 1000 mg/kg, the “Toxicity (Gleason)” value [1] is reported as “modest” and the Max. conc. time ([2]; 100 mg/kg) is reported as 120 min. The “% increase (percent variation of hematic flow, left vertebral arteria)” value (vertebral arteria; 5 mg/kg) was 23.8%, the “solubility in the common” value (Solubility) was “insoluble” and the solubility in water (Solubility) was “insoluble”.

With `CC[C@@]12C=C(C(=O)OC)n3c4c(c5ccccc53)CCN(CCC1)[C@H]42` [Example 26.b, Apovincamine indolyl-3-acetate] the LD50 [1] was 750 mg/kg, the “Toxicity (Gleason)” value [1] was “modest” and the Max. conc. time ([2]; 100 mg/kg) was 120 min. The “% increase (percent variation of hematic flow, left vertebral arteria)” value (vertebral arteria; 5 mg/kg) was 28.7%, the solubility in alcohol (Solubility) was “poorly soluble” and the solubility in water (Solubility) was “insoluble”.

In the case of `CC[C@]12CCCN3CCc4c(n(c5ccccc45)[C@@](O)(C(=O)OC)C1)[C@@H]32` [Example 27.a, Vincamine hydroquinone], the LD50 [1] is reported as 500 mg/kg, the “Toxicity (Gleason)” value [1] is reported as “modest” and the Max. conc. time ([2]; 100 mg/kg) is reported as 120 min. The “% increase (percent variation of hematic flow, left vertebral arteria)” value (vertebral arteria; 5 mg/kg) was 29.1%, the “solubility in the common” value (Solubility) was “insoluble” and the solubility in water (Solubility) was “insoluble”.

In the case of `CC[C@]12CCCN3CCc4c(n(c5ccccc45)[C@@](O)(C(=O)OC)C1)[C@@H]32` [Example 28.a, Vincamine salicylate], the LD50 [1] is reported as 700 mg/kg, the “Toxicity (Gleason)” value [1] is reported as “modest” and the Max. conc. time ([2]; 100 mg/kg) is reported as 240 min. For the same compound, the “% increase (percent variation of hematic flow, left vertebral arteria)” value (vertebral arteria; 5 mg/kg) was 25.7%, the solubility in alcohol (Solubility) was “soluble” and the “solubility in the common” value (Solubility) was “insoluble”. The solubility in water (Solubility) was “insoluble”.

For `CC[C@@]12C=C(C(=O)OC)n3c4c(c5ccccc53)CCN(CCC1)[C@H]42` [Example 28.b, Apovincamine salicylate], the LD50 [1] was 750 mg/kg, the “Toxicity (Gleason)” value [1] was “modest” and the Max. conc. time ([2]; 100 mg/kg) was 240 min. The “% increase (percent variation of hematic flow, left vertebral arteria)” value (vertebral arteria; 5 mg/kg) was 26.7% and the solubility in alcohol (Solubility) was “soluble”.

In the case of `CC[C@]12CCCN3CCc4c(n(c5ccccc45)[C@@](O)(C(=O)OC)C1)[C@@H]32` [Example 29.a, Vincamine dihydroxyphenylalanine (DOPA)], the LD50 [1] is reported as 1500 mg/kg, the “Toxicity (Gleason)” value [1] is reported as “light” and the Max. conc. time ([2]; 100 mg/kg) is reported as 20 min. The “% increase (percent variation of hematic flow, left vertebral arteria)” value (vertebral arteria; 5 mg/kg) was 38.2%, the “solubility in the common” value (Solubility) was “practically insoluble” and the solubility in water (Solubility) was “practically insoluble”.

For `CC[C@@]12C=C(C(=O)OC)n3c4c(c5ccccc53)CCN(CCC1)[C@H]42` [Example 29.b, Apovincamine dihydroxyphenylalanine], the LD50 [1] was 900 mg/kg, the “Toxicity (Gleason)” value [1] was “light” and the Max. conc. time ([2]; 100 mg/kg) was 120 min. The “% increase (percent variation of hematic flow, left vertebral arteria)” value (vertebral arteria; 5 mg/kg) was 41.3% and the “solubility (solvent not given)” value (Solubility; solvent not stated) was “insoluble”.

In the case of Apovincamine alginate [Example 23.b], the LD50 [1] is reported as 750 mg/kg, the “Toxicity (Gleason)” value [1] is reported as “modest” and the Max. conc. time [2] is reported as 60 min. The “% increase (percent variation of hematic flow, left vertebral arteria)” value (vertebral arteria) was 38.0%, the solubility in alcohol (Solubility) was “insoluble” and the solubility in water (Solubility) was “insoluble”.

In the case of “Apovincamine-pectin (1:1 adduct) [Example 30.b]”, the LD50 [1] is reported as 750 mg/kg, the “Toxicity (Gleason)” value [1] is reported as “modest” and the Max. conc. time [2] is reported as 60 min. The “% increase (percent variation of hematic flow, left vertebral arteria)” value (vertebral arteria) was 39.6% and the solubility in alcohol (Solubility) was “little soluble”.

With “Apovincamine-pectin (2:1 adduct) [Example 31.b]” the LD50 [1] was 900 mg/kg, the “Toxicity (Gleason)” value [1] was “light” and the Max. conc. time [2] was 480 min. The “% increase (percent variation of hematic flow, left vertebral arteria)” value (vertebral arteria) was 28.2%, the solubility in alcohol (Solubility) was “poorly soluble” and the solubility in water (Solubility) was “insoluble”.

For Vincamine alginate [Example 23.a], the LD50 [1] was 550 mg/kg, the “Toxicity (Gleason)” value [1] was “modest” and the Max. conc. time [2] was 20 min. For the same compound, the “% increase (percent variation of hematic flow, left vertebral arteria)” value (vertebral arteria) was 34.7%, the “solubility in the common” value (Solubility) was “insoluble” and the solubility in water (Solubility) was “insoluble”.

In the case of “Vincamine pectin (1:1 adduct) [Example 30.a]”, the LD50 [1] is reported as 2000 mg/kg, the “Toxicity (Gleason)” value [1] is reported as “negligible” and the Max. conc. time [2] is reported as 20 min. The “% increase (percent variation of hematic flow, left vertebral arteria)” value (vertebral arteria) was 40.0%, the “solubility in the common” value (Solubility) was “insoluble” and the solubility in water (Solubility) was “insoluble”.

In the case of Vincamine tannate [Example 24.a], the LD50 [1] is reported as 700 mg/kg, the “Toxicity (Gleason)” value [1] is reported as “modest” and the Max. conc. time [2] is reported as 240 min. For the same compound, the “% increase (percent variation of hematic flow, left vertebral arteria)” value (vertebral arteria) was 26.2% and the solubility in alcohol (Solubility) was “soluble”.

With “Vincamine-pectin (2:1 adduct) [Example 31.a]” the LD50 [1] was 2000 mg/kg, the “Toxicity (Gleason)” value [1] was “negligible” and the Max. conc. time [2] was 240 min. The “% increase (percent variation of hematic flow, left vertebral arteria)” value (vertebral arteria) was 24.9%, the “solubility in the common” value (Solubility) was “practically insoluble” and the solubility in water (Solubility) was “practically insoluble”.
